The results in this text go back to US9694016B2 (Novartis AG, priority 2013, dated 2017).

Molecules are shown by their SMILES.

One assay deals with b-Raf (V600E) (Homo sapiens (Human), UniProt P15056, V600E). The following applies: read-out: b-Raf IC-50; AlphaScreen, 60 min pre-incubation, 3 hours reaction.
Sequence of b-Raf (V600E) (P15056 whole entry V600E): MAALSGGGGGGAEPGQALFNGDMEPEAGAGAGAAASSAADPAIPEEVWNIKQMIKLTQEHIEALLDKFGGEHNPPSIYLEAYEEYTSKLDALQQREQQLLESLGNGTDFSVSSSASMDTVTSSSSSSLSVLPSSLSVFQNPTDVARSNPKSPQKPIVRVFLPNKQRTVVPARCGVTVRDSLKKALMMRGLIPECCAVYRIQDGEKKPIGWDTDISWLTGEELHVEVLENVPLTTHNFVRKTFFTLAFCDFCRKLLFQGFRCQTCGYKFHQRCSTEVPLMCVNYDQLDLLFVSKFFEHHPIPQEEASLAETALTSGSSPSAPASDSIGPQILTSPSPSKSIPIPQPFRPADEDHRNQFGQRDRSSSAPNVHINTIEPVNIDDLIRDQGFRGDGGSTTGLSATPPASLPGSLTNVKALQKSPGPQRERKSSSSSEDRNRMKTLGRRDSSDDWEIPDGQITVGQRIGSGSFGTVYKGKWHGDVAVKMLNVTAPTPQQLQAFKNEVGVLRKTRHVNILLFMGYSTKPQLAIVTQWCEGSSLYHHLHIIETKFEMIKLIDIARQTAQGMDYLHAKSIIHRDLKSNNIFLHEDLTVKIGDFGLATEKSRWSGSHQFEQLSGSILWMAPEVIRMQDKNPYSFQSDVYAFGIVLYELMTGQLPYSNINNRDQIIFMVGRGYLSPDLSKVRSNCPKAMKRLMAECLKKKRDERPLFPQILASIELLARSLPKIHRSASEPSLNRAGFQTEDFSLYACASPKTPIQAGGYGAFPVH
Consider `CCOc1nnc(-c2cc(NC(=O)c3ccnc(C(F)F)c3)ccc2C)cc1N1CCOCC1` [Example 562, 2-(difluoromethyl)-N-(3-(6-ethoxy-5-morpholinopyridazin-3-yl)-4-methylphenyl)isonicotinamide], for which the IC50 was 0.6 nM.

For `Cc1ccc(C(=O)Nc2cccc(C(C)C)c2)cc1-c1cc(N2CCOCC2)c(=O)n(C)c1` [Example 436, N-(3-isopropylphenyl)-4-methyl-3-(1-methyl-5-morpholino-6-oxo-1,6-dihydropyridin-3-yl)benzamide], the IC50 was 3.8 nM.

Consider `CCOc1nnc(-c2cc(NC(=O)c3cc(C(F)(F)F)ccn3)cnc2C)cc1N1CCOCC1` [Example 611, N-(5-(6-ethoxy-5-morpholinopyridazin-3-yl)-6-methylpyridin-3-yl)-4-(trifluoromethyl)picolinamide], for which the IC50 is 1.3 nM.

Take `Cc1ccc(NC(=O)c2cccc(CC#N)c2)cc1-c1cc(N2CCOCC2)c(=O)n(C)n1` [Example 652, 3-(cyanomethyl)-N-(4-methyl-3-(1-methyl-5-morpholino-6-oxo-1,6-dihydropyridazin-3-yl)phenyl)benzamide]: the IC50 came to 6.7 nM.

With `CCC(F)(F)c1cc(C(=O)Nc2cnc(C)c(-c3cc(N4CCOCC4)c(=O)n(C)n3)c2)ccn1` [Example 679, 2-(1,1-difluoropropyl)-N-(6-methyl-5-(1-methyl-5-morpholino-6-oxo-1,6-dihydropyridazin-3-yl)pyridin-3-yl)isonicotinamide], the IC50 was found to be 8.1 nM.

For the compound `Cc1ccc(NC(=O)c2cc(CN)cc(C(F)(F)F)c2)cc1-c1cc(N2CCOCC2)c(=O)n(C)c1` [Example 470, 3-(aminomethyl)-N-(4-methyl-3-(1-methyl-5-morpholino-6-oxo-1,6-dihydropyridin-3-yl)phenyl)-5-(trifluoromethyl)benzamide], the IC50 is 4.5 nM.

For the compound `Cc1ncc(NC(=O)c2ccnc(C3(C#N)CC3)c2)cc1-c1cc(N2CCOCC2)n2nccc2n1` [Example 802, 2-(1-cyanocyclopropyl)-N-(6-methyl-5-(7-morpholinopyrazolo[1,5-a]pyrimidin-5-yl)pyridin-3-yl)isonicotinamide], the IC50 turned out to be 3.1 nM.

`CCc1cc(C(=O)Nc2ccc(C)c(-c3cc(N4CCOCC4)c(=O)n(C)n3)c2)ccn1` [Example 642, 2-ethyl-N-(4-methyl-3-(1-methyl-5-morpholino-6-oxo-1,6-dihydropyridazin-3-yl)phenyl)isonicotinamide]: the IC50 is 1.4 nM.

In the case of `CCn1cc(C(=O)Nc2ccc(C)c(-c3cc(N4CCOCC4)c(=O)n(C)n3)c2)cc(C(F)(F)F)c1=O` [Example 641, 1-ethyl-N-(4-methyl-3-(1-methyl-5-morpholino-6-oxo-1,6-dihydropyridazin-3-yl)phenyl)-6-oxo-5-(trifluoromethyl)-1,6-dihydropyridine-3-carboxamide], the IC50 stood at 2.7 nM.

`Cc1ccc(NC(=O)c2ccnc(C(C)(C)F)c2)cc1-c1cc(N2CCOC(C)(C)C2)c(=O)n(C)n1` [Example 665, N-(3-(5-(2,2-dimethylmorpholino)-1-methyl-6-oxo-1,6-dihydropyridazin-3-yl)-4-methylphenyl)-2-(2-fluoropropan-2-yl)isonicotinamide]: the IC50 is 6.7 nM.

Regarding `COc1nnc(-c2cc(NC(=O)c3ccnc(C(F)(F)F)c3)cnc2C)cc1N1CCOCC1` [Example 605, N-(5-(6-methoxy-5-morpholinopyridazin-3-yl)-6-methylpyridin-3-yl)-2-(trifluoromethyl)isonicotinamide], the IC50 was 2.7 nM.

Consider `Cc1ccc(NC(=O)c2ccnc(C(F)(F)F)c2)cc1-c1cc(N2CCOCC2)c(OCCO)nn1` [Example 585, N-(3-(6-(2-hydroxyethoxy)-5-morpholinopyridazin-3-yl)-4-methylphenyl)-2-(trifluoromethyl)isonicotinamide], for which the IC50 is 1.4 nM.

With `Cc1ncc(NC(=O)c2cccc(C(F)(F)F)c2)cc1-c1ccc(S(C)(=O)=O)c(N2CCOCC2)c1` [Example 687, N-(6-methyl-5-(4-(methylsulfonyl)-3-morpholinophenyl)pyridin-3-yl)-3-(trifluoromethyl)benzamide], the IC50 was determined as 0.8 nM.

The same assay, now with this note: read-out: b-Raf IC-50; AlphaScreen, 60 min pre-incubation, reaction 3 hours at room temperature.
As to `Cc1ncc(NC(=O)c2cccc(C(F)(F)F)c2)cc1-c1cc(N2CCOCC2)c(S(C)(=O)=O)nn1` [Example 919, N-(6-methyl-5-(6-(methylsulfonyl)-5-morpholinopyridazin-3-yl)pyridin-3-yl)-3-(trifluoromethyl)benzamide], the IC50 was 4.11 nM.

As for `Cc1ccc(NC(=O)c2ccnc(C(F)F)c2)cc1-c1nc2c(c(N3CCOCC3)n1)S(=O)(=O)CC2` [Example 856, 2-(difluoromethyl)-N-(4-methyl-3-(4-morpholino-5,5-dioxido-6,7-dihydrothieno[3,2-d]pyrimidin-2-yl)phenyl)isonicotinamide], the IC50 is 5.5 nM.

With `Cc1ccc(NC(=O)c2cnnc(C(F)(F)F)c2)cc1-c1cc(NCCO)nc(N2CCOCC2)c1` [Example 1047, N-(3-(2-((2-hydroxyethyl)amino)-6-morpholinopyridin-4-yl)-4-methylphenyl)-6-(trifluoromethyl)pyridazine-4-carboxamide], the IC50 turned out to be 3.95 nM.

Turning to `CCC(F)(F)c1cc(C(=O)Nc2cnc(C)c(-c3cc(C4COCCO4)nc(N4CCOCC4)c3)c2)ccn1` (stereo not shown) [Example 1168, N-(2′-(1,4-dioxan-2-yl)-2-methyl-6′-morpholino-[3,4′-bipyridin]-5-yl)-2-(1,1-difluoropropyl)isonicotinamide], the IC50 was 4.56 nM.

Consider `Cc1ncc(NC(=O)c2ccnc(C(F)(F)F)c2)cc1-c1cc(N2CCOCC2)c(S(C)(=O)=O)nn1` [Example 921, N-(6-methyl-5-(6-(methylsulfonyl)-5-morpholinopyridazin-3-yl)pyridin-3-yl)-2-(trifluoromethyl)isonicotinamide], for which the IC50 was 7.73 nM.

Take `Cc1ccc(NC(=O)c2ccnc(C(C)(C)C#N)c2)cc1-c1cnc(OCCO)c(N2CCOCC2)c1` [Example 998, 2-(2-cyanopropan-2-yl)-N-(3-(6-(2-hydroxyethoxy)-5-morpholinopyridin-3-yl)-4-methylphenyl)isonicotinamide]: the IC50 is 3 nM.

For the compound `Cc1ccc(NC(=O)c2ccnc(C(C)(C)C#N)c2)cc1-c1nc2c(c(N3CCOCC3)n1)CN(C(=O)OC(C)(C)C)CC2` [Example 864, tert-butyl 2-(5-(2-(2-cyanopropan-2-yl)isonicotinamido)-2-methylphenyl)-4-morpholino-7,8-dihydropyrido[4,3-d]pyrimidine-6(5H)-carboxylate], the IC50 worked out at 70.2 nM.

On to `Cc1ccc(NC(=O)c2ccnc(S(C)(=O)=O)c2)cc1-c1cnc(OC[C@H](C)O)c(N2CCOCC2)c1` [Example 989, (S)—N-(3-(6-(2-hydroxypropoxy)-5-morpholinopyridin-3-yl)-4-methylphenyl)-2-(methylsulfonyl)isonicotinamide], for which the IC50 stood at 1.96 nM.

Turning to `Cc1ccc(NC(=O)c2ccnc(C(F)F)c2)cc1-c1cc(OC2CCOCC2)nc(N2CCOCC2)c1` [Example 1151, 2-(difluoromethyl)-N-(4-methyl-3-(2-morpholino-6-((tetrahydro-2H-pyran-4-yl)oxy)pyridin-4-yl)phenyl)isonicotinamide], the IC50 is 0.6 nM.

As to `Cc1ccc(C(=O)Nc2cccc(C(F)(F)F)c2)cc1-c1cc(N2CCOCC2)c2nccn2n1` [Example 888, 4-methyl-3-(8-morpholinoimidazo[1,2-b]pyridazin-6-yl)-N-(3-(trifluoromethyl)phenyl)benzamide], the IC50 amounted to 1.6 nM.

The same assay, now with this note: read-out: b-Raf IC-50; Table 2; AlphaScreen, 3 hours reaction.
Regarding `CCOc1ncc(-c2cc(NC(=O)c3ccnc(C(F)(F)F)c3)cnc2C)cc1N1CCOCC1` [Example 246, N-(6′-ethoxy-2-methyl-5′-morpholino-[3,3′-bipyridin]-5-yl)-2-(trifluoromethyl)isonicotinamide], the IC50 is 1.2 nM.

For the compound `Cc1ccc(NC(=O)c2cccnn2)cc1-c1ccnc(N2CCOCC2)c1` [Example 67, N-(4-methyl-3-(2-morpholinopyridin-4-yl)phenyl)pyridazine-3-carboxamide], the IC50 was 500 nM.

As to `Cc1ncc(NC(=O)c2ccnc(C(C)(C)C#N)c2)cc1-c1cncc(N2CCOCC2)c1` [Example 297, 2-(2-cyanopropan-2-yl)-N-(2-methyl-5′-morpholino-[3,3′-bipyridin]-5-yl)isonicotinamide], the IC50 was 18.8 nM.

Regarding `CCOc1ncc(-c2cc(NC(=O)c3cnnc(C(F)(F)F)c3)cnc2C)cc1N1CCOCC1` [Example 259, N-(6′-ethoxy-2-methyl-5′-morpholino-[3,3′-bipyridin]-5-yl)-6-(trifluoromethyl)pyridazine-4-carboxamide], the IC50 was determined as 3.1 nM.

With `Cc1nc(C(=O)Nc2cnc(C)c(-c3cc(N4CCOCC4)c(=O)n(C)c3)c2)c(C)o1` [Example 383, N-(1′,2-dimethyl-5′-morpholino-6′-oxo-1′,6′-dihydro-[3,3′-bipyridin]-5-yl)-2,5-dimethyloxazole-4-carboxamide], the IC50 stood at 2800 nM.

For `Cc1ccc(NC(=O)c2cnnc(C(F)(F)F)c2)cc1-c1cnc(OC2CCOCC2)c(N2CCOCC2)c1` [Example 275, N-(4-methyl-3-(5-morpholino-6-((tetrahydro-2H-pyran-4-yl)oxy)pyridin-3-yl)phenyl)-6-(trifluoromethyl)pyridazine-4-carboxamide], the IC50 amounted to 0.5 nM.

As for `CCOc1ncc(-c2cc(NC(=O)c3cc(N4CCN(CC)CC4)cc(C(F)(F)F)c3)cnc2C)cc1N1CCOCC1` [Example 257, N-(6′-ethoxy-2-methyl-5′-morpholino-[3,3′-bipyridin]-5-yl)-3-(4-ethylpiperazin-1-yl)-5-(trifluoromethyl)benzamide], the IC50 turned out to be 10 nM.

In the case of `Cc1ccc(NC(=O)c2cn(C(C)C)nc2C)cc1-c1cc(N2CCOCC2)c(=O)n(C)c1` [Example 367, 1-isopropyl-3-methyl-N-(4-methyl-3-(1-methyl-5-morpholino-6-oxo-1,6-dihydropyridin-3-yl)phenyl)-1H-pyrazole-4-carboxamide], the IC50 stood at 12.6 nM.
